Assay results published in ChEMBL document CHEMBL2331238, “Xanthoquinodins from the endolichenic fungal strain Chaetomium elatum” (J Nat Prod, 2013).

Legend:
Type in all cases: functional, cell-based
SW480 = test: Cytotoxicity against human SW480 assessed as cell viability measured after 48 hrs by MTT assay; details: SW480, 48 h
SMMC-7721 = test: Cytotoxicity against human SMMC7721 assessed as cell viability measured after 48 hrs by MTT assay; details: SMMC-7721, 48 h
A549 = test: Cytotoxicity against human A549 assessed as cell viability measured after 48 hrs by MTT assay; details: A549, 48 h
MCF7 = test: Cytotoxicity against human MCF7 assessed as cell viability measured after 48 hrs by MTT assay; details: MCF7, 48 h
HL-60 = test: Cytotoxicity against human HL60 cells assessed as cell viability measured after 48 hrs by MTT assay; details: HL-60, 48 h

COC(=O)[C@]12Oc3cc4c(c(O)c3C(=O)C1=C(O)CC[C@@H]2O)[C@@H]1C=C[C@]2(C4)C(=C(O)c3c(O)cc(C)cc3[C@@H]2O)C1=O [XANTHOQUINODIN A6]
IC50 (SW480): 6.44 µM | IC50 (SMMC-7721): 2.87 µM | IC50 (A549): 2.04 µM | IC50 (MCF7): 5.64 µM | IC50 (HL-60): 3.75 µM

COC(=O)[C@]12Oc3cc4c(c(O)c3C(=O)C1=C(O)CC[C@@H]2O)[C@@H]1C=C[C@@]2(C4)C(=O)c3cc(C)cc(O)c3C(O)=C2C1=O [XANTHOQUINODIN A2]
IC50 (SW480): > 40 µM | IC50 (SMMC-7721): 6.77 µM | IC50 (A549): 4.04 µM | IC50 (MCF7): 20.8 µM | IC50 (HL-60): 5.5 µM

CC(=O)O[C@H]1C(=O)[C@@]2(C)[C@H]([C@H](OC(=O)c3ccccc3)[C@]3(O)C[C@H](OC(=O)[C@H](O)[C@@H](NC(=O)c4ccccc4)c4ccccc4)C(C)=C1C3(C)C)[C@]1(OC(C)=O)CO[C@@H]1C[C@@H]2O [PACLITAXEL]
IC50 (SW480): < 0.008 µM | IC50 (SMMC-7721): < 0.008 µM | IC50 (A549): < 0.008 µM | IC50 (MCF7): < 0.008 µM | IC50 (HL-60): < 0.008 µM

COC(=O)[C@@]12Oc3cc4c(c(O)c3C(=O)C1=C(O)CC[C@@H]2O)[C@@H]1C=C[C@@]2(C4)C(=O)c3cc(C)cc(O)c3C(O)=C2C1=O [XANTHOQUINODIN A1]
IC50 (SW480): 28.8 µM | IC50 (SMMC-7721): 8 µM | IC50 (A549): 3.33 µM | IC50 (MCF7): 14.2 µM | IC50 (HL-60): 6.22 µM

COC(=O)[C@]1([C@@H]2CCC(=O)O2)CC(=O)c2c(cc3c(c2O)[C@@H]2C=C[C@@]4(C3)C(=O)c3cc(C)cc(O)c3C(O)=C4C2=O)O1 [XANTHOQUINODIN A3]
IC50 (SW480): 15.5 µM | IC50 (SMMC-7721): 16.7 µM | IC50 (A549): 15.3 µM | IC50 (MCF7): 7.47 µM | IC50 (HL-60): 4.18 µM

COC(=O)CC[C@H](O)[C@@]1(C(=O)OC)CC(=O)c2c(cc3c(c2O)[C@@H]2C=C[C@]4(C3)C(=C(O)c3c(O)cc(C)cc3[C@@H]4O)C2=O)O1 [XANTHOQUINODIN A5]
IC50 (SW480): 16.2 µM | IC50 (SMMC-7721): 16.8 µM | IC50 (A549): 18.6 µM | IC50 (MCF7): 24 µM | IC50 (HL-60): 26.6 µM

COC(=O)[C@@]12Oc3c(c(O)cc4c3[C@@H]3C=C[C@]5(C4)C(=C(O)c4c(O)cc(C)cc4[C@@H]5O)C3=O)C(=O)C1=C(O)CC[C@@H]2O [XANTHOQUINODIN B5]
IC50 (SW480): > 40 µM | IC50 (SMMC-7721): 15 µM | IC50 (A549): 11.4 µM | IC50 (MCF7): 38.2 µM | IC50 (HL-60): 4.74 µM

COC(=O)[C@]12Oc3c(c(O)cc4c3[C@@H]3C=C[C@]5(C4)C(=C(O)c4c(O)cc(C)cc4[C@@H]5O)C3=O)C(=O)C1=C(O)CC[C@@H]2O [XANTHOQUINODIN B4]
IC50 (SW480): > 40 µM | IC50 (SMMC-7721): 27.7 µM | IC50 (A549): 25.1 µM | IC50 (MCF7): 30 µM | IC50 (HL-60): 3.01 µM

COC(=O)[C@]1([C@@H]2CCC(=O)O2)CC(=O)c2c(cc3c(c2O)[C@@H]2C=C[C@]4(C3)C(=C(O)c3c(O)cc(C)cc3[C@@H]4O)C2=O)O1 [XANTHOQUINODIN A4]
IC50 (SW480): 18.9 µM | IC50 (SMMC-7721): 19.2 µM | IC50 (A549): 25.5 µM | IC50 (MCF7): 31.2 µM | IC50 (HL-60): > 40 µM
